In one data set the test system is Plasma. In words: Plasma protein binding in human by chromatographic method. It is filed as ADME, cell-free.
For the next data set, the system named is Plasmodium falciparum. In words: Antimalarial activity against Plasmodium falciparum 3D7 by [3H]hypoxanthine incorporation assay in presence of human serum. It is filed as functional, organism-based.
Another data set has as its system Liver microsomes. In words: Intrinsic clearance in human liver microsomes. Format: ADME, Microsome. (In general: Liver microsomes are vesicles of endoplasmic reticulum, rich in cytochrome P450 enzymes.)
Data set [1] is described as follows: Cmax in Swiss outbred mouse at 20 mg/kg, po. Format: ADME, organism-based. More on the design: dose 20 mg/kg, route oral. The following applies: in vivo.
For a further data set, the system named is Liver. The experiment in a line: Intrinsic clearance in mouse liver microsomes. It is filed as ADME, Microsome.
Data set [2] in a line: Aqueous solubility of the compound at pH 6.5. It is filed as physicochemical.
Data set [3] in a line: AUC (0 to infinity) in Swiss outbred mouse plasma at 20 mg/kg, po. Format: ADME, organism-based. More on the design: time infinity, dose 20 mg/kg, route oral.
The nature of data set [4]: Lipophilicity, log D of the compound at pH 7.4. Format: physicochemical. Conditions: buffer.
A short description of another data set: in vivo. Conditions: Swiss outbred, mouse, po, 20 mg/kg.
For data set [5], the target named is T1, Dihydroorotate dehydrogenase (Plasmodium falciparum, UniProt Q54A96).
T1 sequence (Q54A96 whole entry): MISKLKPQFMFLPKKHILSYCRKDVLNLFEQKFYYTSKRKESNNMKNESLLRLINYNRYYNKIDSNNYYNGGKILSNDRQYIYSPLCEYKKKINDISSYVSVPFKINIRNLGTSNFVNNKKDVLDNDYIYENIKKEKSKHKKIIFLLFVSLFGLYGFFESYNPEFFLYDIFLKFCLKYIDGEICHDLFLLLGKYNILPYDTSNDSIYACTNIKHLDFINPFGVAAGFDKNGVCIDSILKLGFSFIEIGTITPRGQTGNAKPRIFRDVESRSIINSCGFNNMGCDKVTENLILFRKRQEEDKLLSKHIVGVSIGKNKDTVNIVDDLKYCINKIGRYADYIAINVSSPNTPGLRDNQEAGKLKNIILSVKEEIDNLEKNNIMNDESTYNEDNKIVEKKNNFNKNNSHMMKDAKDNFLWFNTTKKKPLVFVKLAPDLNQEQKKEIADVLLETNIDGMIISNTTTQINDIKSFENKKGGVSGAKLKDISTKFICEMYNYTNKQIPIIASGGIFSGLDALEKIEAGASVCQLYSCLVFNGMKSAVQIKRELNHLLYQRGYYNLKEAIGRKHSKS
Description: Inhibition of Plasmodium falciparum C-terminal hexa-His tagged DHODH expressed in Escherichia coli by DCIP reduction assay

For the next data set, the system named is Mus musculus. In words: Time plasma concentration remained above 1 uM in Swiss outbred mouse plasma at 20 mg/kg, po. It is filed as ADME, organism-based. More on the design: dose 20 mg/kg, route oral. The following applies: in vivo.
Data set [6] deals with Dihydroorotate dehydrogenase (quinone), mitochondrial (Homo sapiens, UniProt Q02127).
Chain of Dihydroorotate dehydrogenase (quinone), mitochondrial (Q02127 whole entry): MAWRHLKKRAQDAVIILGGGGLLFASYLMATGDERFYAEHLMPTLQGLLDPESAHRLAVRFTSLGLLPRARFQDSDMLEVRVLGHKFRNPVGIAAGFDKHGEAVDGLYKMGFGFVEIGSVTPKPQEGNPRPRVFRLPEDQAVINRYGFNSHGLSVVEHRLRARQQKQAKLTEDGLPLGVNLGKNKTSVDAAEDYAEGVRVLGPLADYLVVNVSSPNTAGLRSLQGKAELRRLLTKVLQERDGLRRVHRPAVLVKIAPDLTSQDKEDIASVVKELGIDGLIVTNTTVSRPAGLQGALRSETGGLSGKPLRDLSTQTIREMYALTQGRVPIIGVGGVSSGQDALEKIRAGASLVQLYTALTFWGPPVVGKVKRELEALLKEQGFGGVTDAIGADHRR
Description: Inhibition of human C-terminal hexa-His tagged DHODH expressed in Escherichia coli by DCIP reduction assay
Data set [7] can be described thus: Inhibition of Plasmodium berghei C-terminal hexa-His tagged DHODH expressed in Escherichia coli by DCIP reduction assay.
The nature of data set [8]: Terminal elimination half life in Swiss outbred mouse at 20 mg/kg, po. It is filed as ADME, organism-based. The arrangement: dose 20 mg/kg, route oral. Conditions: in vivo, read-out: beta t1/2 (converted).

Converted amounts (≈) assume the structure as drawn.

One may read the EC50 as the concentration needed to bring the measured effect to its halfway point. The Cmax is the peak of the concentration-time curve. The solubility is how much of the substance goes into solution per volume. High values mean much dissolved substance, low ones little dissolved substance. Usually AUC(0-inf) stands for the area under the concentration-time curve extrapolated to infinity. Read a low AUC(0-inf) as less exposure. In general, logD refers to lipophilicity at a set pH, counting ionised and neutral species. A word on the Tmax: it is the time from dosing to the highest level. For orientation: IC50 means the concentration that gives 50% inhibition. Low values mean inhibition by little substance, high ones a need for much substance.

In the data set on Plasma, `CCc1nc2nc(C)cc(Nc3ccc(C(F)(F)F)cc3)n2n1` had a PPB of 87.5%. In the data set with Plasmodium falciparum, the EC50 is 58 nM. In addition, the Intrinsic clearance in the data set on Liver microsomes was less than 5 µL/min/mg; with Liver, 14.4 µL/min/mg. Also, the peak concentration (Cmax) in data set [1] is 12.6 µM. For the same compound, in [2], the solubility came to 39 µM (≈ 12.5 µg/mL). In data set [3], the AUC(0-inf) is 27.1 µM·h. Moreover, in [4], the logD was 3. Besides, the Tmax in “in vivo” is 1 h. The IC50 was 87 nM in data set [5], more than 100000 nM in data set [6] and 760 nM in data set [7]. In the data set with Mus musculus, the Time turned out to be 5 h. For the same compound, the half-life in [8] was 8.4 h.

The values above are taken from ChEMBL document CHEMBL1955725, “Structure-guided lead optimization of triazolopyrimidine-ring substituents identifies potent Plasmodium falciparum dihydroorotate dehydrogenase inhibitors with clinical candidate potential” (J Med Chem, 2011).
